Source: patent publication US10869904B2, “Pharmaceutical composition for preventing or treating respiratory disease comprising extract of Justicia procumbens L” (DONG WHA PHARM. CO., LTD., priority 2016, dated 2020)
Read-outs that look alike come from different tables or passages of the source. Marks after values point to notes of the source that are not given here.

How the values were obtained:
splenocytes = assay: Inhibition of Concanavalin A-induced splenocyte proliferation (CCK8); type: cell-based, Balb/c mice; conditions: for inhibition of splenocyte proliferation (in words): Tables 4 to 6
Experimental: (§1) The isolated splenocytes were diluted in RPMI medium (containing 10% fetal bovine serum (FBS) and antibiotics (100 U/mL penicillin and 100 μg/mL streptomycin)) at a concentration of 5×10^6 cells/nit, and the cell dilution was dispended in a 24-well plate in an amount of 500 μl/well and in a 96-well plate in an amount of 100 μl/well. The plates were incubated in a 5% CO2 incubator at 37° C. for 48 hours. […] The medium of the 24-well plate was used to measure the degree of secretion of Th2 inflammatory cytokines (IL4 and IL5), and the 96-well plate was used to measure the degree of cell proliferation. First, in order to measure Th2 cytokines, the medium in the 24-well plate was collected and centrifuged at 800×g for 5 minutes, and the supernatant was collected. 100 μl of the supernatant per well was used in IL4 or IL5 enzyme-linked immunosorbent assay (ELISA, Komabiotech Inc.) to measure the degree of secretion of these cytokines. In order to measure the degree of cell proliferation, […] of CCK8 (cell counting kit 8, Donjindo) solution was added to each well of the 96-well plate, and after 4 hours, the absorbance value was measured. The degree of inhibition of spleen cell proliferation by each drug and the degree of inhibition of Th2 cytokine secretion by each drug were calculated using Equation 2 below. For drug synergistic effects, a linear equation was constructed using the concentrations of drugs administered alone as x-coordinates and using drug concentration-dependent inhibition as y-coordinates. Using this linear equation, the concentrations of drugs administered alone, which correspond to inhibition achieved when administered in combination, were calculated, and combination index (CI) was calculated using Equation 3 below. A CI value of less than 1 indicates a synergistic effect, a CI value of 1 indicates an additive effect, and a CI value of more than 1 indicates an antagonistic effect (Liang Zhao et. al., Clinical Cancer Research, 10, 7994-8004, 2004). […]

[1] = system: Neutrophilic Asthma Balb/c Mouse Models; assay: Asthma inhibitory effect in neutrophilic asthma model (ovalbumin + LPS): lung lavage fluid and lung tissue; type: in vivo, Balb/c mice; conditions: oral
Experimental: On 0 and 7 days after 1 week of acclimation, each of the mice was systematically sensitized by intranasally administering 75 μg of ovalbumin and 10 μg of lipopolysaccharide (LPS). 20, 50 or 100 mg/kg of the Justicia procumbens L. prepared in Preparation Example 3 or a positive control (10 mg/kg of dexamethasone and 1 mg/kg of montelukast) was administered orally to the mice On days 14, 15, 21, 22, 28, 29, 35, 36 and 37. One hour after administration, 50 μg of ovalbumin was administered intranasally to the mice. 24 hours after final sensitization (day 37), lung lavage fluid was obtained through tracheostomy, and the lung tissue was isolated. The collected lung lavage fluid was centrifuged at 3000 rpm […], and the supernatant was used to measure physiologically active substances (IL-4, IL-5, and IFN-γ), and the pellets were used to measure the number of inflammatory cells. The physiologically active substances (interleukin-4 (IL-4), interleukin-5 (IL-5), and interferon-gamma (IFN-γ)) in the isolated lung lavage fluid were measured using an enzyme-linked immunosorbent assay (ELISA, IL-4: Komabiotech #K0331144, IL-5: R&D system #M5000, IFN-γ: Komabiotech #K0331138) corresponding to each substance. In addition, the lung lavage fluid pellets were re-dissolved in 0.5 mL of phosphate buffered saline, and 0.1 mL of the solution was added to each well of a 96-well plate and centrifuged at 800 rpm for 5 minutes to attach the cells to the bottom (3 wells per sample). Then, each sample was stained with Diff Quik staining solution (Sysmex), and photographed with a microscope at 2-6 random sites. About 200 cells per sample were counted and the percentage (%) of inflammatory cells of each sample was calculated. The total number of inflammatory cells was measured with a microscope using a hematocytometer, and the number of eosinophils and the number of neutrophils were calculated using the percentage (%) of inflammatory cells of each sample. Staining of the lung tissue was performed in the same manner as described in Example 5 above. Statistical processing was performed using an SPSS program, and a Levene test was performed for a test for equal variance, and significance was tested by one-way analysis (ANOVA).

IL5 = assay: Inhibition of IL5 secretion by Concanavalin A-treated splenocytes (ELISA); type: cell-based, Balb/c mice; conditions: for inhibition of IL5 secretion (in words): text on Tables 7 and 8
Experimental: as §1

IL4 = assay: Inhibition of IL4 secretion by Concanavalin A-treated splenocytes (ELISA); type: cell-based, Balb/c mice; conditions: for inhibition of IL4 secretion (in words): text on Tables 7 and 8
Experimental: as §1

[2] = Mus musculus, Splenocyte, Table 5, 0.5 μM, read-out: Inhibition of splenocyte proliferation (%, n = 3, Mean ± SD)
[3] = Table 8, Concentration (mM) 0.2
[4] = Table 8, Concentration (mM) 0.25
[5] = Table 8, Concentration (mM) 0.5

Molecule | inhibition at 0.5 µM (splenocytes; [2]) | Inhibition of splenocyte proliferation (%, n = 3, Mean ± SD) (splenocytes; Table 5, 0.5 μM) | Inhibition of splenocyte proliferation (%, n = 3, Mean ± SD) (splenocytes; Table 5, 5 μM) | Inhibition of splenocyte proliferation (%, n = 3, Mean ± SD) (splenocytes; Table 6, 1 μM) | Inhibition of splenocyte proliferation (%, n = 3, Mean ± SD) (splenocytes; Table 6, 5 μM) | inhibition of splenocyte proliferation (in words) (splenocytes) | Inhibition of IL5 secretion (%, n = 2, Mean ± SD) (IL5; Table 7, 1 μM) | Inhibition of IL5 secretion (%, n = 2, Mean ± SD) (IL5; Table 7, 5 μM) | Inhibition of IL5 secretion (%, n = 2, Mean ± SD) (IL5; Table 8, Concentration (mM) 1) | Inhibition of IL5 secretion (%, n = 2, Mean ± SD) (IL5; Table 8, Concentration (mM) 5) | inhibition of IL5 secretion (in words) (IL5) | Inhibition of IL4 secretion (%, n = 2, Mean ± SD) (IL4; Table 7, 1 μM) | Inhibition of IL4 secretion (%, n = 2, Mean ± SD) (IL4; Table 7, 5 μM) | Inhibition of IL4 secretion (%, n = 2, Mean ± SD) (IL4; Table 8, Concentration (mM) 1) | Inhibition of IL4 secretion (%, n = 2, Mean ± SD) (IL4; Table 8, Concentration (mM) 5) | inhibition of IL4 secretion (in words) (IL4) | other results
C[C@@H]1C[C@H]2[C@@H]3CCC4=CC(=O)C=C[C@]4(C)[C@@]3(F)[C@@H](O)C[C@]2(C)[C@@]1(O)C(=O)CO [Dexamethasone, dexamethasone] | 118.7 ± 0.21% | – | – | – | – | – | – | – | – | – | – | – | – | – | – | – | inhibition at 0.5 µM (splenocytes; Mus musculus, Splenocyte, Table 4, 0.5 μM, read-out: Inhibition of splenocyte proliferation (n = 3, Mean ± SD)): 110.3 ± 0.62%; inhibition at 0.2 µM (splenocytes; Mus musculus, Splenocyte, Table 6, 0.2 μM, read-out: Inhibition of splenocyte proliferation (%, n = 3, Mean ± SD)): 94.1 ± 1.8%; Epithelium thickness (μm), n = 5, Mean ± S.E. ([1]; 1 mg/kg): 5.0 ± 0.38##, $$ μm; Lung lavage fluid_IFN-γ (pg/mL), n = 5, Mean ± S.E. ([1]; 1 mg/kg): 1.3 ± 0.61##, $$ pg/mL; Lung lavage fluid_IL-4 (pg/mL), n = 5, Mean ± S.E. ([1]; 1 mg/kg): 32.1 ± 9.51## pg/mL; Lung lavage fluid_IL-5 (pg/mL), n = 5, Mean ± S.E. ([1]; 1 mg/kg): 53.0 ± 13.59##, $$ pg/mL; Lung lavage fluid_eosinophil number (×10^5), n = 5, Mean ± S.E. ([1]; 1 mg/kg): 0.1 ± 0.01## ×10^5; Lung lavage fluid_neutrophil number (×10^5), n = 5, Mean ± S.E. ([1]; 1 mg/kg): 0.2 ± 0.02## ×10^5; Lung lavage fluid_total inflammatory cell number (×10^5), n = 5, Mean ± S.E. ([1]; 1 mg/kg): 1.3 ± 0.07## ×10^5; Subepithelial smooth muscle thickness (μm), n = 5, Mean ± S.E. ([1]; 1 mg/kg): 2.7 ± 0.35 μm; inhibition at 0.5 µM (IL5; Mus musculus, Splenocyte, Table 7, 0.5 μM, read-out: Inhibition of IL5 secretion (%, n = 2, Mean ± SD)): 103%; Inhibition of IL5 secretion (%, n = 2, Mean ± SD) (IL5; [3]): 98.9 ± 0.01%; inhibition at 0.5 µM (IL4; Mus musculus, Splenocyte, Table 7, 0.5 μM, read-out: Inhibition of IL4 secretion (%, n = 2, Mean ± SD)): 100%; Inhibition of IL4 secretion (%, n = 2, Mean ± SD) (IL4; [3]): 97.8 ± 0.00%
COc1cc2c(OC)c3c(c(-c4ccc5c(c4)OCO5)c2cc1OC)C(=O)OC3 [Justicidin A, justicidin A] | – | −2.7 ± 1.84% | 85.0 ± 2.43% | 43.4 ± 1.63% | 99.0 ± 2.35% | high inhibitory activities | 25.4 ± 0.01% | 56.7 ± 0.00% | 11.7 ± 0.27% | 25.7 ± 0.08% | inhibited the secretion of IL4 and IL5 | −10.6 ± 0.08% | 54.7 ± 0.02% | 71.6 ± 0.02% | 86.4 ± 0.04% | inhibited the secretion of IL4 and IL5 | Inhibition of splenocyte proliferation (%, n = 3, Mean ± SD) (splenocytes; Table 5, 1 μM): 9.4 ± 4.36%; Inhibition of splenocyte proliferation (%, n = 3, Mean ± SD) (splenocytes; Table 5, 2.5 μM): 56.4 ± 18.80%
COc1cc2cc3c(c(-c4ccc5c(c4)OCO5)c2cc1OC)C(=O)OC3 [Justicidin B, justicidin B] | – | 64.3 ± 0.50% | – | – | – | high inhibitory activities | 84.4 ± 0.00% | – | – | – | inhibited the secretion of IL4 and IL5 | 78.2 ± 0.01% | – | – | – | inhibited the secretion of IL4 and IL5 | Inhibition of splenocyte proliferation (%, n = 3, Mean ± SD) (splenocytes; Table 5, 0.25 μM): 14.2 ± 1.43%; Inhibition of splenocyte proliferation (%, n = 3, Mean ± SD) (splenocytes; Table 6, 0.25 μM): 72.5 ± 2.66%; Inhibition of splenocyte proliferation (%, n = 3, Mean ± SD) (splenocytes; Table 6, 0.5 μM): 90.8 ± 0.94%; Inhibition of IL5 secretion (%, n = 2, Mean ± SD) (IL5; Table 7, 0.5 μM): 55.8 ± 0.01%; Inhibition of IL5 secretion (%, n = 2, Mean ± SD) (IL5; [4]): 41.9 ± 0.04%; Inhibition of IL5 secretion (%, n = 2, Mean ± SD) (IL5; [5]): 66.8 ± 0.10%; Inhibition of IL4 secretion (%, n = 2, Mean ± SD) (IL4; Table 7, 0.5 μM): 35.9 ± 0.01%; Inhibition of IL4 secretion (%, n = 2, Mean ± SD) (IL4; [4]): 81.6 ± 0.02%; Inhibition of IL4 secretion (%, n = 2, Mean ± SD) (IL4; [5]): 87.6 ± 0.02%
COc1cc2c(OC)c3c(c(-c4ccc5c(c4)OCO5)c2cc1OC)COC3=O [Justicidin C, justicidin C] | – | −3.6 ± 4.00% | 8.4 ± 3.20% | 6.7 ± 15.08% | 31.7 ± 12.81% | exhibited the effect of inhibiting splenocyte proliferation | 39.8 ± 0.03% | 36.4 ± 0.02% | 16.9 ± 0.06% | 26.2 ± 0.00% | inhibited the secretion of IL4 and IL5 | −14.1 ± 0.05% | 26.1 ± 0.04% | 25.3 ± 0.15% | 51.7 ± 0.02% | inhibited the secretion of IL4 and IL5 | –
CC(C)(O)c1ccccc1CC[C@@H](SCC1(CC(=O)O)CC1)c1cccc(/C=C/c2ccc3ccc(Cl)cc3n2)c1 [Montelukast, montelukast] | 40.2 ± 2.64% | – | – | – | – | – | – | – | – | – | – | – | – | – | – | – | inhibition at 10 µM (splenocytes; Mus musculus, Splenocyte, Table 4, 10 μM, read-out: Inhibition of splenocyte proliferation (n = 3, Mean ± SD)): 44.1 ± 4.34%; Epithelium thickness (μm), n = 5, Mean ± S.E. ([1]; 10 mg/kg): 25.5 ± 1.64 μm; Lung lavage fluid_IFN-γ (pg/mL), n = 5, Mean ± S.E. ([1]; 10 mg/kg): 32.2 ± 2.13## pg/mL; Lung lavage fluid_IL-4 (pg/mL), n = 5, Mean ± S.E. ([1]; 10 mg/kg): 96.9 ± 14.40## pg/mL; Lung lavage fluid_IL-5 (pg/mL), n = 5, Mean ± S.E. ([1]; 10 mg/kg): 194.4 ± 23.1## pg/mL; Lung lavage fluid_eosinophil number (×10^5), n = 5, Mean ± S.E. ([1]; 10 mg/kg): 0.7 ± 0.05## ×10^5; Lung lavage fluid_neutrophil number (×10^5), n = 5, Mean ± S.E. ([1]; 10 mg/kg): 1.5 ± 0.07## ×10^5; Lung lavage fluid_total inflammatory cell number (×10^5), n = 5, Mean ± S.E. ([1]; 10 mg/kg): 4.0 ± 0.25## ×10^5; Subepithelial smooth muscle thickness (μm), n = 5, Mean ± S.E. ([1]; 10 mg/kg): 10.7 ± 0.59 μm; inhibition at 10 µM (IL5; Mus musculus, Splenocyte, Table 7, 10 μM, read-out: Inhibition of IL5 secretion (%, n = 2, Mean ± SD)): 70.2 ± 0.01%; inhibition at 10 µM (IL4; Mus musculus, Splenocyte, Table 7, 10 μM, read-out: Inhibition of IL4 secretion (%, n = 2, Mean ± SD)): -42.6 ± 0.08%
phyllamyricin C | – | 0.9 ± 2.86% | 18.8 ± 2.82% | 19.0 ± 18.44% | 25.0 ± 11.37% | exhibited the effect of inhibiting splenocyte proliferation | 22.9 ± 0.01% | 67.9 ± 0.01% | 0.5 ± 0.05% | 31.6 ± 0.08% | inhibited the secretion of IL4 and IL5 | 9.8 ± 0.05% | 14.4 ± 0.01% | 11.8 ± 0.01% | 51.5 ± 0.11% | inhibited the secretion of IL4 and IL5 | –
